Laboratory results from patent publication US11745181B2, “Devices and methods for bioassay” (Unchained Labs, priority 2017, dated 2023).

Tests used:
[1] = test system: zebrafish larvae Tg(fli1:EGFP); assay: High-resolution fluorescence-microscopy imaging of vessel sprouting and morphology in zebrafish larvae; format: in vivo; settings: 0.1 μM, 1 μM, or 5 μM, replenished every 24 hours
Source text: In this example, green fluorescent zebrafish embryos were loaded into the fluidic chambers of μZMount, a non-limiting exemplary fluidic device with the structure provided in FIGS. 1-2 herein and dimensions that were within 5% of the target dimensions as provided herein with reference to the illustrative embodiment provided in FIGS. 1-2, and that includes a plurality of fluidic chambers having the features and within 5% of the target dimensions provided herein for the illustrative embodiment of FIGS. 2A-2B. […] These zebrafish were Tg(fli1:EGFP) and expressed enhanced GFP under the control of the fli1 promoter such that the entire vasculature fluoresces. The zebrafish embryos and larvae that developed therefrom, were visualized with high-resolution fluorescent microscopy.
Each different drug treatment was replenished every 24 hours, effectively dosing the zebrafish at 24, 48, 72, and 96 hours post initial drug treatment. The drug was added in a manner similar to replenishing the media. […]
Embryos were imaged at various time points while within the fluidic device, up to 5 dpf, using high-resolution fluorescence-microscopy. […]
Drug-mediated inhibition of intersegmental and subintestinal vessels sprouting was recorded using high-resolution fluorescence-microscopy.

[2] = test system: zebrafish embryos Tg(fli1:EGFP); assay: Heart rate measurement of zebrafish embryos/larvae in the μZMount fluidic device; format: in vivo; settings: 0.1 μM, 1 μM, or 5 μM for 48 or 96 hours; compared with published literature
Protocol: Each different drug treatment was replenished every 24 hours, effectively dosing the zebrafish at 24, 48, 72, and 96 hours post initial drug treatment. The drug was added in a manner similar to replenishing the media. At 4 dpf, each larvae was moved into its respective second bioassay region by adding 10 μl of media to the sample chamber and aspirated out quickly from the first outlet. The yolk of the zebrafish at this age has depleted enough to allow the fish to flow into the second bioassay region.
Heart rate was measured for no less than five embryos per treatment at 48 hours post fertilization (hpf) and 96 hpf. Of the heart rates measured, three of them were recorded using video image capturing techniques for future evaluation. The heart rates were measured by visually inspecting the heart beat and counting the number of beats in 15 seconds and then multiplying by 4.

**Q.** For `Cc1cc(C)c(/C=C2\C(=O)Nc3ccccc32)[nH]1` [SU-5416], which dorsalization [1] is on record?
**A.** concentration dependent dorsalization

**Q.** And the “inhibition of intersegmental and subintestinal vessels sprouting (angiogenic development)” value ([1]; fluorescence microscopy)?
**A.** suppression of angiogenic development similar to published work

**Q.** And the heart rates [2]?
**A.** within the normal range
